Tested on: carrageenan-induced inflammation model
Assay: plantar swelling of carrageenan-induced inflammation model in rats
Type: in vivo, SD rats
Details: intragastric once, 0.007 g/kg
Description: Animal germline: specific pathogen-free (SPF) male SD rats, aged 6-week-old, weighing between 132 g and 199 g when received, and weighing between 152 g and 225 g when drugs are administered to rats, were purchased from Hunan Slake Jingda laboratory Animal Co., Ltd. The laboratory animal production license: SCXK (Xiang) 2016-0002 (valid until Sep. 29, 2021), issued by China Hunan Provincial Science & Technology Department. The laboratory animal quality certificate No.: 43004700060779.
Method for grouping animals: after the quarantine was over, rats that have passed the quarantine inspection were selected for experiments. Groups were randomly assigned on the basis of body weight and divided into 9 groups with 10 rats per group. The 9 groups were as follows: a negative control group, a model group, a group of rats treated with low-dose bio-transformed bear bile powder, a group of rats treated with middle-dose bio-transformed bear bile powder, a group of rats treated with high-dose bio-transformed bear bile powder, a group of rats treated with low-dose natural bear bile powder, a group of rats treated with middle-dose natural bear bile powder, a group of rats treated with high-dose natural bear bile powder, and a positive control group.
Dose and group design for the experiment: a total of 9 groups are contemplated, that is, negative control group (blank control group), a model group, a group of rats treated with low-dose bio-transformed bear bile powder, a group of rats treated with middle-dose bio-transformed bear bile powder, a group of rats treated with high-dose bio-transformed bear bile powder, a group of rats treated with low-dose natural bear bile powder, a group of rats treated with middle-dose natural bear bile powder, a group of rats treated with high-dose natural bear bile powder, and a positive control group (a group of rats treated with indomethacin).
Administration route, administration frequency, and administration period of the test substance and the control: each of them was administered intragastrically, the administration volume was 10 mL/kg, and each group was administered once.
Experimental method: SD male rats that had passed the quarantine inspection were selected for experiments. Groups were divided into 9 groups with 10 male rats per group. The 9 groups were as follows: a negative control group, a model group, a group of rats treated with low-dose bio-transformed bear bile powder, a group of rats treated with middle-dose bio-transformed bear bile powder, a group of rats treated with high-dose bio-transformed bear bile powder, a group of rats treated with low-dose natural bear bile powder, a group of rats treated with middle-dose natural bear bile powder, a group of rats treated with high-dose natural bear bile powder, and a positive control indomethacin group. Before molding, each animal was scored at the ankle joint of the right hind foot, and the volume of the right hind foot was measured with a plantar volume measuring instrument, and it was measured continuously 2 times, wherein the average value obtained from the two measurements was taken as a base volume.
Except for the blank control group, the animals in the remaining groups were injected with 1% by weight of carrageenan suspension at the right hind foot metatarsal palmar fascia, the volume for each rat was 0.1 mL; animals in the blank control group were injected with an equal volume of normal saline; corresponding drugs were administered intragastrically immediately after an injection of carrageenan. The plantar volume of the right hind foot of each group of animals was measured at 1 h, 2 h, 3 h, 4 h, 5 h, and 6 h after injection, and was measured twice consecutively, and the average value obtained from the two measurements was taken as the plantar volume after modeling. The plantar swelling and the plantar swelling inhibition rate were calculated according to the plantar volume measured at different time points after inflammation was induced. […]

In the case of COc1ccc2c(c1)c(CC(=O)O)c(C)n2C(=O)c1ccc(Cl)cc1 [Positive control, indomethacin], the “Plantar swelling 1 h” value (1 h after carrageenan) is reported as 0.21 ± 0.14 mL, the “Plantar swelling 2 h” value (2 h after carrageenan) is reported as 0.25 ± 0.16 mL and the “Plantar swelling 3 h” value (3 h after carrageenan) is reported as 0.29 ± 0.15 mL. The “Plantar swelling 4 h” value (4 h after carrageenan) was 0.15 ± 0.12 mL, the “Plantar swelling 5 h” value (5 h after carrageenan) was 0.19 ± 0.09 mL and the “Plantar swelling 6 h” value (6 h after carrageenan) was 0.17 ± 0.10 mL.

Reference: patent US20210015874A1, “USE OF BIO-TRANSFORMED BEAR BILE POWDER IN PREPARATION OF ANTI-INFLAMMATORY DRUGS” (SHANGHAI KAIBAO PHARMACEUTICAL CO., LTD., priority 2019, published 2021)
